US20150125904A1, “PROBE INCORPORATION MEDIATED BY ENZYMES” (Massachusetts Institute of Technology, priority 2012, published 2015)
Where two headings read alike, the source gives them in different places.

Key:
[1] = molecular target: T1, WTLplA / LAP-YFP in HEK cells (Escherichia coli, UniProt P32099); test: Azide ligation yield in cells (native gel shift of LAP-YFP), wild-type LplA; assay type: cell-based, E. coli
T1 construct: expressed in transfected cells; host or cells: HEK cells
Experimental: (§1) For azide 7 ligation, cells were transfected with 50 ng WTLplA and 1000 ng pcDNA3-LAP-YFP. For azide 9 ligation, cells were transfected with 500 ng W37ILplA and either 1000 ng pcDNA3-LAP-YFP or pcDNA3-LAP(K⋄A)-YFP using Lipofectamine 2000 (Life Technologies). The LplA:LAP plasmid ratios are identical to the conditions used for imaging. 18 hr after transfection, cells were incubated in growth media (MEM supplemented with 10% FBS) containing 200 μM azide 7 or azide 9 for 30 min or 1 hr at 37° C. Excess azide probe was washed out over 1 hr. […] Cells were then centrifuged at 13,000 rpm for 2 min, and the supernatant was analyzed on a 12% polyacrylamide native gel without SDS (5 μL lysate per lane) at constant 200 V. Prior to Coomassie staining, in-gel fluorescence of YFP was visualized on a FUJIFILM FLA-9000 instrument using LD473 laser and Long Pass Blue (LPB) filter. […]
(§2) We also used a gel shift assay as a separate readout of azide ligation yield inside cells. […] The yield of azide ligation to LAP-YFP was determined by shift on a native polyacrylamide gel. The unmodified fusion protein, visualized by YFP fluorescence, runs at an apparent molecular weight of ˜42 kD. […]

Trp37→Ile LplA = Trp37→Ile LplA (Escherichia coli, UniProt P32099, W38I); details: 30 min reaction, 500 μM probe; normalized to TCO2/Trp37→Val
Trp37→Ile LplA, sequence (P32099 2-338 W38I): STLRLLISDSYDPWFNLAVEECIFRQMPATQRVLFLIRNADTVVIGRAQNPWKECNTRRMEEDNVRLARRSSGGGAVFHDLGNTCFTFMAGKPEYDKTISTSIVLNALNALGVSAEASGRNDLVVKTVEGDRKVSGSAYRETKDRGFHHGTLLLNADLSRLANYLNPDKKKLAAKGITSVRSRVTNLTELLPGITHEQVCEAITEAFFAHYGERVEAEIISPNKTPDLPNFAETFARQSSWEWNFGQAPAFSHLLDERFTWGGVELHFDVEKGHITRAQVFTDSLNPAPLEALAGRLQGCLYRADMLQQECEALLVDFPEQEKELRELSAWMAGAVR
Experimental: LplA protein was purified as previously described2 and stored at −80° C. in 20 mM Tris-HCl, pH 7.5 supplementated with 10% v/v glycerol. Reactions were quenched with 30 mM EDTA (final concentration) and resolved by HPLC (Varian ProStar) on a C-18 column using a linear gradient of 25-60% acetonitrile in H2O (with 0.1% v/v trifluoroacetic acid) over 14 minutes. Species were detected at 210 nm absorbance. Peaks corresponding to LAP and its trans-cyclooctene adducts were confirmed by ESI mass spectrometry. The extent of conversion was calculated from ratios of peak areas, neglecting minor extinction coefficient changes to LAP due to trans-cyclooctene ligation.
The relative abilities of wild-type and mutant ligases to ligate TCO1-3 onto LplA acceptor peptide (LAP) were measured by an HPLC assay after 30 min. reaction time. […] Errors, ±1 s. d.

W37VLplA = W37VLplA (Escherichia coli, UniProt P32099, W38V); details: 500 μM probe, 500 μM LAP, 30° C.
W37VLplA, sequence (P32099 2-338 W38V): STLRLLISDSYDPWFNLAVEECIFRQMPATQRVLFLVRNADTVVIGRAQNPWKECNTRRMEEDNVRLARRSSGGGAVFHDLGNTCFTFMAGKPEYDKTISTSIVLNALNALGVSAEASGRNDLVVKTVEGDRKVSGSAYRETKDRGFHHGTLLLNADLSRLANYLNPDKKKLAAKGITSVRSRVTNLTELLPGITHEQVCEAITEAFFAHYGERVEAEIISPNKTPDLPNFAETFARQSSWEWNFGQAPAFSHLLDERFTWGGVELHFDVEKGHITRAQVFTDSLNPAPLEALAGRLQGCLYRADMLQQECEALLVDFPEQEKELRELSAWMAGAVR
Experimental: After 5, 10, 15 and 20 minutes, an aliquot was drawn from the reaction vial, quenched with 30 mM EDTA (final concentration) and the product quantified by HPLC as in Table 3. The plot of product concentration against time was fitted to a linear line whose slope corresponds to the initial velocity. The value of kcat was calculated from the Michaelis-Menten equation Vmax=(kcat)([Enzyme]) at substrate-saturating conditions. Measurements were performed in triplicate.

W37ILplA [2] = molecular target: T2, W37ILplA (Escherichia coli, UniProt P32099, W38I); test: In vitro screening for Ald and Hyd ligation activity (HPLC); assay type: biochemical, E. coli; details: 1 μM W37ILplA, 500 μM probe
T2 construct: His6 (N); made in house; host or cells: E. coli
T2 sequence (P32099 2-338 W38I): as the sequence (P32099 2-338 W38I) above
Experimental: Ligation reactions were assembled as follows: 1 μM of purified LplA mutant (Uttamapinant, et al., 2010), 150 μM synthetic LAP2 peptide ([…]; SEQ ID NO:4), 5 mM ATP, 500 μM of either Ald or Hyd probe, 5 mM magnesium acetate, and 25 mM Na2HPO4 pH 7.2 in a total volume of 20 μL. Reactions were incubated for 5 to 60 min at 30° C. and then quenched with EDTA to a final concentration of 45 mM. Samples were diluted to a total volume of 80 μL in conjugation buffer (10 mM Na2HPO4, 3.2 mM KH2PO4, 2.7 mM KCl, 140 mM NaCl, pH 5.0) and analyzed on a Varian Prostar HPLC using a reverse-phase C18 Microsorb-MV 100 column (250×4.6 mm). Chromatograms were recorded at 210 nm. For analysis of the aldehyde ligation reaction we used a 10-minute gradient of 30-60% acetonitrile in water with 0.1% trifluoroacetic acid under 1 mL/minute flow rate. For analysis of the hydrazine ligation reaction a gradient of 25-60% over 14 minutes with the same solvents was used. Percent conversions were calculated by dividing the product peak area by the sum of (product+starting material) peak areas. Reactions were performed in triplicate (Ald) or duplicate (Hyd) and the average values are shown. Reactions in FIG. 27C were performed using the conditions above with a 70 minute reaction time for Ald and 120 minute reaction time for Hyd.

W37ILplA [3] = molecular target: T2, W37ILplA; test: Measurement of kcat values for Ald and Hyd ligation; assay type: biochemical, E. coli; details: for Vmax / kcat: 1 μM W37ILplA, 600 μM LAP, 500 μM probe
Experimental: Values of kcat for W37ILplA ligation of the Ald and Hyd probes onto LAP peptide were determined by measuring the initial reaction rates by HPLC. The conditions used were as follows: 1 μM W37ILplA, 600 μM LAP, 500 μM of Ald or Hyd, 2 mM magnesium acetate, and 25 mM sodium phosphate buffer, pH 7.2. Each initial rate was measured in triplicate and the average value reported. The error shown represents ±1 s.d. The equation kcat=Vmax/[E] was used to determine the kcat value.

W37ILplA [4] = molecular target: T2, W37ILplA; assay type: biochemical, E. coli
Experimental: Reactions were quenched with 40 mM EDTA (ethylenediaminetetraacetic acid, final concentration). Percent conversion to LAP-azide adduct was determined by HPLC with a C18 reverse phase column, recording absorbance at 210 nm. Elution conditions were 30-60% acetonitrile in water with 0.1% trifluoroacetic acid over 20 minutes at 1.0 mL/min flow rate. The percent conversion was calculated from the ratio of LAP-azide to sum of (unmodified LAP+LAP-azide). Reactions containing 1 μM LplA enzyme, 500 μM azide 9, and 300 μM LAP peptide were incubated at 30° C. for 2 hours. To determine kinetic measurements, reactions containing 100 nM W37ILplA, 25-700 μM azide 9, and 600 μM LAP peptide were incubated at 30° C., before quenching at various time points with EDTA.
Reactions were set up as described in the main text. Aliquots were taken and quenched before product conversion exceeded 5%. To calculate initial rates, we determined the amount of product at each time point by generating a calibration curve using purified LAP and LAP-azide 9 mixed at different ratios. This curve correlated the measured ratio of integrated HPLC peak areas to the actual ratio, i.e. adjusted for any differences in extinction coefficient of LAP vs. LAP-azide 9. Initial rates (Vo) were determined at each azide 9 concentration, by plotting the amount of LAP-azide 9 product against time. The slope of the line gives Vo. Vo values were then plotted against azide 9 concentration in FIG. S3C, and Origin 8.5.1 was used to fit the curve to the Michaelis-Menten equation Vo=Vmax[azide 9]/(Km+[azide 9]). From the Vmax, kcat was calculated using Vmax=kcat[E]total. Measurements of Vo values at each azide 9 concentration were performed in triplicate.

[5] = molecular target: T3, W37ILplA / LAP-YFP in HEK cells (Escherichia coli, UniProt P32099, W38I); test: Azide ligation yield in cells (native gel shift of LAP-YFP), W37ILplA; assay type: cell-based, E. coli
T3 construct: expressed in transfected cells; host or cells: HEK cells
T3 sequence (P32099 2-338 W38I): as above
Experimental: as §1, §2

[6] = Tetrazine-dye fluorescence turn-on after Diels-Alder cycloaddition; assay type: physicochemical; details: DPBS pH 7.4, >100-fold excess TCO1
Experimental: Tetrazine-fluorophore conjugates were dissolved in Dulbecco's phosphate buffered saline, pH 7.4 at approximately 100 nM concentration. Solutions with >100-fold excess TCO1 in DMSO or DMSO vehicle alone added were transferred into an opaque, flat-bottom 96-well plate (Greiner Bio One) and their fluorescence emission scanned with a Safire Tecan fluorescence microplate reader. Excitation was fixed at 430 nm for fluorescein, 530 nm for TMR, and 610 nm for Alexa 647. Fold-changes in fluorescence turn-on are reported at respective fluorescence emission maximum wavelengths.

[7] = In vitro second-order Diels-Alder cycloaddition rate constant; details: DPBS, pseudo-first-order approximation
Experimental: Ligation reaction was allowed to proceed at 30° C. for 4 hours to maximize ligation yield. The mixture was then resolved by preparatory HPLC on a C-18 column (25-45% acetonitrile over 30 min. linear gradient, supplemented with 0.1% v/v trifluoroacetic acid), where the product eluted at 19 min. and its identity confirmed by ESI mass spectrometry. The eluate was freeze-dried into a white powder and dissolved in DPBS for subsequent measurements.
To measure second-order rate constant by pseudo-first-order approximation, 100 μL Tz1- or Tz2-fluorescein (100 nM in DPBS) was loaded into an opaque, flat-bottom 96-well plate (Greiner Bio One), then mixed with 100 μL LAP-TCO2 (3.3 μM in DPBS). The fluorescence intensity at 520 nm was immediately recorded at 9-second intervals until the reaction reached completion in approximately 5 minutes. The fluorescence intensity was then converted to [tetrazine-fluorescein], assuming that initial fluorescence corresponded to 50 nM and final fluorescence corresponded to 0 nM tetrazine-fluorescein. […] Measurements were performed in triplicate.

[8] = test system: LAP-LDL receptor on HEK cells; test: Live cell surface fluorogenic labeling without dye washout; assay type: cell-based, human; details: 50 nM, without rinsing
Experimental: After 5 rinses with Tyrode's buffer, the chamber was placed on the microscope objective covered with 200 μL of the same buffer. Image acquisition sequence was initiated immediately after 200 μL of 100 nM Tz1-fluorescein in Tyrode's buffer was added to the chamber, and briefly mixed by pipeting. Final concentration of Tz1-fluorescein was therefore 50 nM after mixing. LAP-LDL receptor and a mCherry fluorescent protein transfection marker were transfected at a 1:1 ratio, with altogether 400 ng plasmid per 1 cm^2 culture.
To quantify the imaging signal/noise ratio, 17 cells with obvious surface fluorescence (by eye) at the 180 sec. time point were chosen and separate masks created automatically by the Slidebook software over the fluorescent rims. The averaged pixel intensity was defined as “signal”. To measure noise, 10 cells with no obvious surface fluorescence (by eye) at the 180 sec. time point were chosen, and rectangular masks created manually over the interiors of these cells. The averaged (over all 10 masks) pixel intensity was defined as “noise”.

[9] = 100 nM W37ILplA, 600 μM LAP, 30° C.

T1 sequence (P32099 2-338): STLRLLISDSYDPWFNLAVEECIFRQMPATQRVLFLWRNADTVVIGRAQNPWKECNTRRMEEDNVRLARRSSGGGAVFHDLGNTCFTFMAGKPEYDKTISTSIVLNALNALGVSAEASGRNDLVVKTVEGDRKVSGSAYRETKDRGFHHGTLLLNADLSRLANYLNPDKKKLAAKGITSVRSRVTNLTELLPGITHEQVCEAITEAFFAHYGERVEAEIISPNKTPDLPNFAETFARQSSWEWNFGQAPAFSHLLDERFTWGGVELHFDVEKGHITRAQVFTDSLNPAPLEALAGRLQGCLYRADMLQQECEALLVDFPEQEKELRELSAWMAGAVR

2-Azidomethyl-4-chloropyridine [Azide 7]
ligation yield in cells, repeat of the experiment ([1]; 50 ng WTLplA plasmid): 67%
ligation yield in cells ([1]; 200 μM azide, 1 hour labeling, densitometry): 73%

O=C(O)CCCNC(=O)O[C@H]1CC/C=C/CCC1 (stereo in doubt) [TCO1, rel-(1R-4E-pR)-cyclooct-4-ene-1-yl-N-butyric acid carbamate]
Ligation efficiency (average, normalized product percentage), Trp37→Ile (Trp37→Ile LplA): 0.5 ± 0.4%

O=C(O)CCCCNC(=O)O[C@H]1CC/C=C/CCC1 (stereo in doubt) [TCO2, rel-(1R-4E-pR)-cyclooct-4-ene-1-yl-N-pentanoic acid carbamate]
Michaelis-Menten kcat of ligation onto LAP (W37VLplA): 0.34 ± 0.02 s⁻¹

O=Cc1ccc(C(=O)NCCCCC(=O)O)cc1 [Ald]
reaction completion (W37ILplA [2]; 150 μM LAP peptide, 5 minutes): 62%
activity of Ald versus Hyd (W37ILplA [3]): ten-fold greater activity
Vmax (W37ILplA [3]): 19.7 ± 0.7 µM/min
kcat (W37ILplA [3]): 0.33 ± 0.01 s⁻¹

NNc1ccc(C(=O)NCCCCC(=O)O)cn1 [Hyd]
reaction completion (W37ILplA [2]; 60 min): 50%
Vmax (W37ILplA [3]): 1.25 ± 0.16 µM/min
kcat (W37ILplA [3]): 0.021 ± 0.003 s⁻¹

[N-]=[N+]=NCCCCCCCCCC(=O)O [azide 9, 10-azidodecanoic acid]
Km lower than azide 7 ligation catalyzed by wild-type LplA (W37ILplA [4]): 4 fold
improvement in kcat/Km over azide 7 ligation catalyzed by wild-type LplA (W37ILplA [4]): 2 fold
kcat reduced compared to azide 7 ligation catalyzed by wild-type LplA (W37ILplA [4]): 1.8 fold
Km (W37ILplA [4]; [9]): 35 µM
kcat (W37ILplA [4]; [9]): 0.0603 s⁻¹
ligation yield in cells, repeat of the experiment ([5]; 500 ng W37ILplA plasmid): 89%
ligation yield in cells ([5]; 200 μM azide, 30 minutes incubation): nearly quantitative

Aminobenzyltetrazine carboxyfluorescein [Tz1-fluorescein]
increase in fluorescein emission upon reaction with excess trans-cyclooctene [6]: 13.4 fold
second order rate constant for reaction with TCO2-ligated LAP [7]: 5000 ± 700 M⁻¹ s⁻¹
time to saturation of signal-to-noise ratio [8]: approximately 3 minutes
